{
  "source": "paper PMC3763632",
  "about": "“Radiosynthesis and Radiotracer Properties of a 7-(2-[^18F]Fluoroethoxy)-6-methoxypyrrolidinylquinazoline for Imaging of Phosphodiesterase 10A with PET” (Pharmaceuticals, 2012)",
  "key": {"[1]": {"assay": "log D7.0 by RP-HPLC retention", "format": "physicochemical", "conditions": "MeCN/NH4OAc, pH 7.0, read-out: Log D", "description": "To clarify these findings, we determined the ligand distribution coefficients for [^18/19F]IV experimentally, under physiological pH conditions in solid-liquid phase systems via retention on RP-HPLC, and in liquid-liquid phase systems by conventional shake-flask method. […] All in one, an experimental log D7.0–7.4 value of ~2.7 promised a good potential for brain uptake of [^18F]IV in vivo, attended by low unspecific binding.\nReferring to an OECD guideline and using a series of reference compounds (nitrobenzene, p-nitrophenol, benzene, toluene, chlorobenzene, benzophenone, naphthalene, 1,4-dibromobenzene, biphenyl, diphenylether, 1,4-diiodobenzene) with known log POW values comprised between 1.89 and 4.64, retention times were determined on two reversed phase columns (Multospher 120 RP-18 AQ, 250 mm × 4.6 mm, 5 μm, CS-Chromatographie Service GmbH, Langerwehe, Germany; SupelcosilTM ABZ + Plus, 250 × 4 mm, 5 μm, Supelco, Bellefonte, PA, USA). […] Dead times t0 were determined by retention of thiourea. Corresponding capacity factors k for all compounds were calculated and plotted as log k versus log P of the standard compounds, affording calibration curves (Microcal^TM Origin 6.0, Microcal Software, Inc., Northhampton, MA, USA). […]"}, "PDE10A [2]": {"target": "T1, PDE10A (Homo sapiens, UniProt Q9Y233)", "T1 construct": "purchased Biocrea GmbH, Radebeul, Germany; host or cells: SF21 insect cells (PDE10A-transfected; baculovirus system is mentioned)", "T1 sequence (Q9Y233 whole entry, species assumed)": "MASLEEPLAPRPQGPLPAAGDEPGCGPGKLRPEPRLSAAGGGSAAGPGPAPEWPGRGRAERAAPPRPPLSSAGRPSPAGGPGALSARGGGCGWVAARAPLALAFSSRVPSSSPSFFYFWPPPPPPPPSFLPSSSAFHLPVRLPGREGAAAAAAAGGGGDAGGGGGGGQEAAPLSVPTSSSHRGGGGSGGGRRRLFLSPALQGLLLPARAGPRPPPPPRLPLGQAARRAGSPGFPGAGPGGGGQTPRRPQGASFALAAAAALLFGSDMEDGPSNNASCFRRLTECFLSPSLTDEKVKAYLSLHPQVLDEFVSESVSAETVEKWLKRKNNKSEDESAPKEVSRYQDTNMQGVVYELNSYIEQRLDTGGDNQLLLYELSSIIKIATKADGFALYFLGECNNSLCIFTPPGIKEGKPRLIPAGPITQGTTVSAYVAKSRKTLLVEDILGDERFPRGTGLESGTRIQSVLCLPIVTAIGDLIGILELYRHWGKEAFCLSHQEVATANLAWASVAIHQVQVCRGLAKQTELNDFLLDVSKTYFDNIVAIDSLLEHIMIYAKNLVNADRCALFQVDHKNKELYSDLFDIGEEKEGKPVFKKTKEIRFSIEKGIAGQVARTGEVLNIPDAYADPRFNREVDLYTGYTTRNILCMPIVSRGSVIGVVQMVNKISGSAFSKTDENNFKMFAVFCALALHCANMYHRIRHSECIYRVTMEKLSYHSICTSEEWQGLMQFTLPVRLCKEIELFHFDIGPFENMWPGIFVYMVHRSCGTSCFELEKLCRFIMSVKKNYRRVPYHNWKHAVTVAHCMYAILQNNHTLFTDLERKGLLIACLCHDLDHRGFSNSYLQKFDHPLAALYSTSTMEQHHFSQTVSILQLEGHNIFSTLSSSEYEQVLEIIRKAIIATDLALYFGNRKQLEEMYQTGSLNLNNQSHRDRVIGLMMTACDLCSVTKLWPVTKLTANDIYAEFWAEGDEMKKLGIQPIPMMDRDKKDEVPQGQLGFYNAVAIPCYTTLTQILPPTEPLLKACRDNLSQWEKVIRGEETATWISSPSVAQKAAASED", "assay": "Homologous competitive binding on membrane homogenates of PDE10A-transfected SF21 cells", "conditions": "read-out: IC50 (homologous competition vs [18F]IV)", "method": "The dissociation constant KD of [^18F]IV was determined in homologous competitive binding experiments by nonlinear regression analysis. Cell membrane homogenates from PDE10A-transfected SF21 cells (100 µg protein/mL incubation volume) were incubated with solutions of six concentrations of IV (working concentration 10 pM–[…]), each spiked with a fixed concentration of [^18F]IV (working concentration 0.05–0.1 nM).\nCrude membrane homogenates isolated from PDE10A-transfected SF21 cells were obtained from Biocrea GmbH, Radebeul, Germany. For competitive radioligand displacement experiments (n = 2), the membrane preparations were diluted with incubation buffer (50 mM Tris-HCl, pH 7.4 at room temperature, 5 mM MgCl2) and re-homogenized by passing through a 27-gauge needle. The protein (100 µg) was incubated with 0.05–0.1 nM of [^18F]IV and different concentrations of IV (10 pM–1 µM), diluted from a 10 mM stock in DMSO, at a final volume of 1 mL. Nonspecific binding was determined in the presence of 10 µM of I, and control incubation was carried out accordingly using crude membrane preparations obtained from non-transfected SF21 cells.\nIncubation at room temperature was terminated after 120 min by rapid filtration (Brandel 48-channel harvester; Biomedical Research and Development Lab. Inc., Gaithersburg, MD, USA) on Whatman GF/B glass-fiber filters, pre-soaked for 90 min in 0.3% polyethylenimine (Sigma, Deisenhofen, Germany), followed by washing four times with 4 mL of ice-cold wash buffer (50 mM Tris-HCl, pH 7.4 at 4 °C). Filter-bound radioactivity was quantified using a calibrated γ-counter (Wallac WIZARD, Perkin Elmer, Waltham, MA, USA).\nEach experiment was carried out in triplicate. The binding parameter IC50 was estimated using iterative non-linear curve fitting. KD of [^18F]IV was estimated directly from homologous competition curve with KD = IC50-[radioligand] as well as from the respective saturation isotherm by nonlinear regression analysis."}, "PDE10A [3]": {"target": "T1, PDE10A", "design": "method as in earlier work", "conditions": "cited from earlier work"}, "PDE3A": {"system": "PDE3A", "design": "method as in earlier work", "conditions": "cited from earlier work"}, "PDE4A": {"system": "PDE4A", "design": "method as in earlier work", "conditions": "cited from earlier work"}, "PDE 1B": {"system": "PDE 1B", "design": "method as in earlier work", "conditions": "cited from earlier work"}, "PDE 2A": {"system": "PDE 2A", "design": "method as in earlier work", "conditions": "cited from earlier work"}, "PDE 5A": {"system": "PDE 5A", "design": "method as in earlier work", "conditions": "cited from earlier work"}, "PDE 6": {"system": "PDE 6", "design": "method as in earlier work", "conditions": "cited from earlier work"}, "PDE 7B": {"system": "PDE 7B", "design": "method as in earlier work", "conditions": "cited from earlier work"}, "PDE 8A": {"system": "PDE 8A", "design": "method as in earlier work", "conditions": "cited from earlier work"}, "PDE 9A": {"system": "PDE 9A", "design": "method as in earlier work", "conditions": "cited from earlier work"}, "PDE 11A": {"system": "PDE 11A", "design": "method as in earlier work", "conditions": "cited from earlier work"}, "PDE10A [4]": {"target": "T1, PDE10A", "conditions": "cited from earlier work"}},
  "note": "Where “and” joins values, the source holds several entries; their conditions need not be identical. Identical values can stand only once. Like-named read-outs stand apart in the source and are kept apart here.",
  "data": [
    {"compound": "COc1cc2c(N3CC[C@@H](Oc4cnc5ccccc5n4)C3)ncnc2cc1OCCF", "note": "[IV, (R)-7-(2-fluoroethoxy)-6-methoxy-4-(3-(quinoxalin-2-yloxy)pyrrolidin-1-yl)quinazoline]", "values": [
      {"measurement": "chromatographic logD", "setting": "[1]; Multospher 120 RP-18 AQ column, Multospher", "result": 2.63},
      {"measurement": "chromatographic logD", "setting": "[1]; Supelcosil ABZ+Plus column, Supelcosil", "result": 2.63},
      {"measurement": "IC50", "setting": "PDE10A [2]; mean, n = 2, 0.05–0.1 nM [18F]IV", "result": 39.3, "unit": "nM"},
      {"measurement": "IC50", "setting": "PDE10A [2]; single experiments (n = 2)", "result": "38.3 nM and 40.4 nM"},
      {"measurement": "IC50", "setting": "PDE10A [3]; PDE10A", "result": 105, "unit": "nM"},
      {"measurement": "Ki", "setting": "PDE10A [3]; data to be published in detail elsewhere", "result": 53, "unit": "nM"},
      {"measurement": "IC50", "setting": "PDE3A", "result": 88.7, "unit": "nM"},
      {"measurement": "IC50", "setting": "PDE4A", "result": 562, "unit": "nM"},
      {"measurement": "IC50", "setting": "PDE 1B", "result": "> 1000", "unit": "nM"},
      {"measurement": "IC50", "setting": "PDE 2A", "result": "> 1000", "unit": "nM"},
      {"measurement": "IC50", "setting": "PDE 5A", "result": "> 1000", "unit": "nM"},
      {"measurement": "IC50", "setting": "PDE 6", "result": "> 1000", "unit": "nM"},
      {"measurement": "IC50", "setting": "PDE 7B", "result": "> 1000", "unit": "nM"},
      {"measurement": "IC50", "setting": "PDE 8A", "result": "> 1000", "unit": "nM"},
      {"measurement": "IC50", "setting": "PDE 9A", "result": "> 1000", "unit": "nM"},
      {"measurement": "IC50", "setting": "PDE 11A", "result": "> 1000", "unit": "nM"}
    ]},
    {"compound": "FCCn1cc(-c2ccncc2)c(-c2ccc(OCc3ccc4ccccc4n3)cc2)n1", "note": "[JNJ41510417]", "values": [
      {"measurement": "IC50", "setting": "PDE10A [4]", "result": 0.5, "unit": "nM"},
      {"measurement": "pIC50,PDE10A", "setting": "PDE10A [4]", "result": 9.3}
    ]},
    {"compound": "Cc1cnc(COc2ccc(-c3nn(CCF)cc3-c3ccncc3)cc2)c(C)c1", "note": "[JNJ42259152]", "values": [
      {"measurement": "pIC50,PDE10A", "setting": "PDE10A [4]", "result": 8.8}
    ]}
  ]
}
